Reference: patent publication US20230210116A1, “HONEYBEE REPELLENT” (EARTH CORPORATION, priority 2020, published 2023)

Test system: honeybees
Assay: Test for Confirmation of Honeybee Repelling Effect 1, 2, 3 (feeding station with 40% sugar water)
Assay type: in vivo
Conditions: for Corrected repelling rate (%) Honeybees: Test 3, 5 mL
Text: The following were used as the test samples for Examples: 2% by weight per volume ethanol solutions of octane (a-1), tetradecane (a-2), heptadecane (a-3), nonadecane (a-4), 2-acetylfuran (b-1), 5-methyl-2-furaldehyde (b-2), furfural (b-3), furaneol (c-1), 2-acetylpyrrole (d-1), 1-benzylpyrrole (d-2), 1-octanol (e-1), 1-dodecanol (e-2), and 1-octadecanol (e-3), respectively; and 2% by weight per volume aqueous solutions of furfuryl alcohol (b-4), sotolon (c-2), and α-angelicalactone (c-3), respectively.
The following were used as the test samples for Comparative Examples: 2% by weight per volume ethanol solutions of eicosane (carbon number 20, p-1), heneicosane (carbon number 21, p-2), 2-methyloctane (branched alkane, p-3), tributyl o-acetylcitrate (p-4), and 1-methylpyrrole (p-5), respectively; and 2% by weight per volume aqueous solutions of 2-methyltetrahydrofuran-3-one (p-6) and acetic acid (p-7), respectively.
Ethanol alone and water alone were used as samples for correction.
The cotton pads 13 were impregnated with 40% sugar water (80 g), after which disposable wooden chopsticks 15 (80 mm in length) were placed over the cotton pads on the lid surface as “landing areas,” for use as “test insect (honeybee) feeding station 1” 10.
A nest box of test insects (honeybees) (1 colony: approx. 6,000 bees) was placed at the center of a glass hothouse (bottom face: 5 m×10 m, height (highest part): 3 m, temperature: 25° C.), and the aforementioned “test insect (honeybee) feeding station 1” was installed at a location 2 meters away from the nest box.
After confirming that at least five test insects (honeybees) were feeding at the above “test insect (honeybee) feeding station 1” installed in the hothouse, test 1 was conducted to measure the “approaching count (Mz)” and “landing count (My)” and calculate the “landing rate (Mx).”
Next, the “test insect (honeybee) feeding station 1” installed in the hothouse was replaced with each “test insect (honeybee) feeding station 2” which was let to stand still for 5 minutes, after which test 2 was conducted to measure the “approaching count (Nz)” and “landing count (Ny)” and calculate the “landing rate (Nx).”
Approaching count: Total number of times a honeybee has approached within 25 cm of the cotton wools at the feeding station during 5 minutes
Landing count: Total number of honeybees that have remained for at least 1 second on the cotton pads at the feeding station during 5 minutes
Landing rate (%): (Landing count/Approaching count)×100
The “repelling rate Q” and “corrected repelling rate R” were calculated from the above “landing rates” using the calculation formula below. For the “repelling rate of sample for correction” used to calculate the “corrected repelling rate R,” the repelling rate of each of the samples for correction above (ethanol alone or water alone being a solvent for the active ingredient) was used.
Repelling rate Q (%)={(Mx)−(Nx)}/(Mx)×100
Corrected repelling rate R (%)={Repelling rate of test sample−Repelling rate of sample for correction}/{100−Repelling rate of sample for correction}×100
The following were used as the test samples for Examples: 0.1% by weight per volume ethanol solutions of 3-methyl-2-butanol (e-4), carvacrol (x-1), isoeugenol (x-2), cinnamyl alcohol (x-3), diacetone alcohol (x-4), α-amylcinnamaldehyde (x-5), 3-methyl-2-butenal (x-6), valeraldehyde (x-7), ethyl cinnamate (x-8), methyl cinnamate (x-9), ethyl isovalerate (x-10), isoamyl formate (x-11), 5-ethyl-2-methylpyridine (x-12), 2-(3-phenylpropyl)pyridine (x-13), 2,6-dimethylpyridine (x-14), ß-ionone (x-15), 2-acetylthiazole (x-16), butylamine (x-17), and citronella oil (x-18), respectively; and a 0.1% by weight per volume aqueous solution of (3-amino-3-carboxypropyl)dimethylsulfonium chloride (x-19).

[1] = 2.0% by weight per volume solution
[2] = Test 2, honeybees, 0.1% by weight per volume solution, 5 mL (active ingredient 5 mg)
[3] = 0.1% by weight per volume solution
[4] = Test 1, 2% by weight per volume solution
[5] = Test 1, honeybees, 2% by weight per volume solution, 5 mL sprayed (active ingredient 0.1 g)

Compound | Corrected repelling rate (%) Honeybees [3] [%] | further results
C=Cc1ccc(OC)cc1 [y-90, 4-methoxystyrene] | – | Corrected repelling rate (%) Honeybees [1]: 95.6%
CC=Cc1ccc(O)c(OC)c1 [x-2, isoeugenol] | – | Corrected repelling rate R (%) [2]: 64.6%
CCc1nccnc1C [y-59, 2-ethyl-3-methylpyrazine] | 72.8 | –
(−)-menthyl succinate [y-32] | 57.7 | –
CC(=O)/C=C/C1C(C)=CCCC1(C)C (stereo not drawn) [y-71, α-ionone] | 90.0 | –
CC(=O)c1ccc(C)cc1 [y-68, 4-methylacetophenone] | 84.3 | –
Cc1cnccn1 [y-58, 2-methylpyrazine] | 55.0 | –
CCCCCC(=O)O [y-72, hexanoic acid] | 89.4 | –
Cn1cccc1 [p-5, 1-methylpyrrole, reference compound] | – | repelling effect / repelled behaviors of honeybees (in words) [4]: not observed at all; Corrected repelling rate R (%) [5]: <0%
C/C=C(\C)C(=O)OC/C=C(\C)CCC=C(C)C [y-31, geranyl tiglate] | 70.3 | –
CC(=O)c1ccc[nH]1 [d-1, 2-acetylpyrrole] | – | repelling effect / repelled behaviors of honeybees (in words) [4]: excellent repelling effect; Corrected repelling rate R (%) [5]: 37.0%
O=C(O)c1ccc(O)cc1 [y-77, 4-hydroxybenzoic acid] | 80.1 | –
c1ccc(Cn2cccc2)cc1 [d-2, 1-benzylpyrrole] | – | repelling effect / repelled behaviors of honeybees (in words) [4]: excellent repelling effect; Corrected repelling rate R (%) [5]: 68.3%
CCCCSCCCC [y-94, butyl sulfide] | – | Corrected repelling rate (%) Honeybees [1]: 17.2%
CC(=O)c1ccccc1 [y-69, acetophenone] | – | Corrected repelling rate (%) Honeybees [1]: 98.9%
C/C=C(\C)C=O [y-13, trans-2-methyl-2-butenal] | 67.4 | –
Cc1cccc2nccnc12 [y-83, 5-methylquinoxaline] | 78.7 | –
CSCCCO [y-3, methionol] | – | Corrected repelling rate (%) Honeybees [1]: 84.7%
CCCCCCCCCCCCO [e-2, 1-dodecanol] | – | Corrected repelling rate R (%) [5]: 84.6%
CCCCCCCCCCCCCCCCCCO [e-3, 1-octadecanol] | – | Corrected repelling rate R (%) [5]: 16.2%
CC(=O)OCCC(C)CCC=C(C)C (stereo not shown) [y-30, citronellyl acetate] | 91.1 | –
O=C1CCCO1 [y-64, γ-butyrolactone] | 27.5 | –
CCCCCCCC=O [y-12, n-octanal] | 96.3 | –

Compound | Corrected repelling rate (%) Honeybees [3] [%] | further results
CC(=O)CC(C)=O [y-70, acetylacetone] | 21.5 | –
CC(=O)OCCC(C)C [y-53, isoamyl acetate] | – | Corrected repelling rate (%) Honeybees [1]: 23.0%
CCCCOC(=O)CCC [y-35, butyl butyrate] | 61.7 | –
Cc1cncc(C)n1 [y-60, 2,6-dimethylpyrazine] | 35.4 | –
CNc1ccccc1C(=O)OC [y-34, methyl N-methylanthranilate] | 78.6 | –
CC(=O)c1nccs1 [x-16, 2-acetylthiazole] | – | Corrected repelling rate R (%) [2]: 61.7%
Cc1cnc(C)c(C)n1 [y-55, 2,3,5-trimethylpyrazine] | 80.6 | –
CCCCCCCC(=O)OCC [y-48, ethyl octanoate] | – | Corrected repelling rate (%) Honeybees [1]: 94.1%
CC(=O)OC(C)(C)C1CC=C(C)CC1 (stereo not shown) [y-29, terpinyl acetate] | 81.2 | –
CC(C)CCOC(=O)CC(C)C [y-52, isoamyl isovalerate] | – | Corrected repelling rate (%) Honeybees [1]: 23.5%
O=Cc1ccco1 [b-3, furfural] | – | Corrected repelling rate R (%) (2 % strength): 93.6%
Cc1ccc2ncccc2c1 [y-80, 6-methylquinoline] | 74.7 | –
Cc1cccc2c(C)cccc12 [y-89, 1,5-dimethylnaphthalene] | 88.8 | –
CCc1cccnc1 [y-62, 3-ethylpyridine] | – | Corrected repelling rate (%) Honeybees [1]: 58.3%
CCCCCCCCCCCCCCCCC [a-3, heptadecane] | – | repelling effect / repelled behaviors of honeybees (in words) [4]: excellent repelling effect; Corrected repelling rate R (%) [5]: 28.2%
CC1OCCC1=O (stereo not shown) [p-6, 2-methyltetrahydrofuran-3-one, reference compound] | – | repelling effect / repelled behaviors of honeybees (in words) [4]: not observed at all; Corrected repelling rate R (%) [5]: <0%
c1ccc2scnc2c1 [y-78, benzothiazole] | 87.7 | –
CCCCCCCCO [e-1, 1-octanol] | – | Corrected repelling rate R (%) [5]: 58.3%
CCCCCCCCCCCCCCC(=O)OCC [y-40, ethyl pentadecanoate] | 77.6 | –
CCCC=O [y-15, butylaldehyde] | 51.0 | –
CCCCCCCCCC(=O)OCC [y-38, ethyl decanoate] | 58.7 | –
CC(C)CCO [e-6, 3-methyl-1-butanol] | 65.4 | –
CCCCCCC(C)C [p-3, 2-methyloctane, reference compound] | – | repelling effect / repelled behaviors of honeybees (in words) [4]: not observed at all; Corrected repelling rate R (%) [5]: <0%

Compound | Corrected repelling rate (%) Honeybees [3] [%] | further results
CC(=O)CC(C)(C)O [x-4, diacetone alcohol] | – | Corrected repelling rate R (%) [2]: 20.9%
CCc1nccnc1CC [y-56, 2,3-diethylpyrazine] | 57.0 | –
CCOC(=O)Cc1ccccc1 [y-24, ethyl phenylacetate] | – | Corrected repelling rate (%) Honeybees [1]: 55.5%
c1cnc2c(n1)CCCC2 [y-86, 5,6,7,8-tetrahydroquinoxaline] | – | Corrected repelling rate (%) Honeybees [1]: 73.2%
CC(=O)OC1CC(C)CCC1C(C)C (stereo not shown) [y-26, menthyl acetate] | 76.4 | –
CCCCCCCCCCCCCCCCCC(=O)O [y-74, stearic acid] | 33.7 | –
CCCOC(=O)c1ccc(O)cc1 [y-16, propyl 4-hydroxybenzoate] | 89.7 | –
CC(=O)O [p-7, acetic acid, reference compound] | – | Corrected repelling rate R (%) [5]: <0%
CCCCCCCC(=O)OCCCC [y-36, butyl n-octanoate] | 52.0 | –
CCCCCCCCCCCCCCCCCCC [a-4, nonadecane] | – | Corrected repelling rate R (%) [5]: 56.7%
CCC=O [y-11, propionaldehyde] | 64.0 | –
CC(=O)c1ccc2ccccc2c1 [y-67, 2′-acetonaphtone] | 91.0 | –
CC(C)COC(=O)Cc1ccccc1 [y-21, isobutyl phenylacetate] | 80.5 | –
Cc1ccc(C=O)o1 [b-2, 5-methyl-2-furaldehyde] | – | Corrected repelling rate R (%) [5]: 55.3%
CCCCCC(C=O)=Cc1ccccc1 [x-5, α-amylcinnamaldehyde] | – | Corrected repelling rate R (%) [2]: 77.8%
CCC(=O)OCc1ccccc1 [y-23, benzyl propionate] | 26.0 | –
CC(C)CO.CC(C)CO [e-5, 2-methyl-1-propanol (isobutanol)] | 88.2 | –
CCCCCCCCCCCCCCCCCCCC [p-1, eicosane, reference compound] | – | repelling effect / repelled behaviors of honeybees (in words) [4]: not observed at all; Corrected repelling rate R (%) [5]: <0%
COC[C@@H]1CCCN1 [y-93, (S)-2-(methoxymethyl)pyrrolidine] | 66.9 | –
O=C(O)c1ccnc2ccccc12 [y-82, 4-quinolinecarboxylic acid] | 55.5 | –
CCC(=O)O [p-8, propionic acid, reference compound] | – | Corrected repelling rate (%) Honeybees [1]: <0%
CCCCCCCCCCCCCCCCCCCCC [p-2, heneicosane, reference compound] | – | repelling effect / repelled behaviors of honeybees (in words) [4]: not observed at all; Corrected repelling rate R (%) [5]: <0%
